In patent US9676766B2, “Triazolopyridines” (BAYER INTELLECTUAL PROPERTY GMBH, priority 2009, dated 2017) one finds IC50 data, which are given here for 9 compounds.

pIC50: −log10 of the molar value.

For this assay, the target named is T1, human kinase Mps-1 (Homo sapiens, UniProt P33981).
T1 construct: N-terminally GST-tagged human full length recombinant Mps-1 kinase; purchased Invitrogen, Karslruhe, Germany PV4071
T1 sequence (P33981 1-857): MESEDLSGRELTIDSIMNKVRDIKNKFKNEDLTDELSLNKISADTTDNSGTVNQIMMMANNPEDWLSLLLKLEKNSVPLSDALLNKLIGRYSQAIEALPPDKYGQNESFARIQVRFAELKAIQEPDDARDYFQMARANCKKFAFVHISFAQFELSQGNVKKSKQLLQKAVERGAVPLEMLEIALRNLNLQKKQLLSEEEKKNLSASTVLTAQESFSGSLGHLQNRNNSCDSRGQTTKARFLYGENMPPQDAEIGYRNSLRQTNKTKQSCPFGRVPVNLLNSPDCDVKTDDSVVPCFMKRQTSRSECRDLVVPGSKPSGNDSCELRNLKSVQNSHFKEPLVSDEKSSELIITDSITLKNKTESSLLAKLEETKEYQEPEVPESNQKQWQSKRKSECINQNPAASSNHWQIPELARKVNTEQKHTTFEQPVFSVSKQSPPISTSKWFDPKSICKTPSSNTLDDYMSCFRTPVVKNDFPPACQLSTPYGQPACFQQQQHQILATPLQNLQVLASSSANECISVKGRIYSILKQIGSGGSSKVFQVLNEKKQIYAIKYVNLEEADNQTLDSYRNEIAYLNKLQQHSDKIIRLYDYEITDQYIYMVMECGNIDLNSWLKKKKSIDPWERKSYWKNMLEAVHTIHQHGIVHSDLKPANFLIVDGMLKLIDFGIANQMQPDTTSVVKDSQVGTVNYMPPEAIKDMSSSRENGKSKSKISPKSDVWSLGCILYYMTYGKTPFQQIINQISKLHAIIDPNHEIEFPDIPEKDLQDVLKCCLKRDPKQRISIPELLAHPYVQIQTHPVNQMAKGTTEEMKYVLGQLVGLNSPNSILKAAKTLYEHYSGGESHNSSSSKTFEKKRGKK
Description: Mps-1 Kinase Assay (TR-FRET). Conditions: N-terminally GST-tagged human full length recombinant Mps-1; 10 μM ATP; 1 μM biotinylated peptide substrate; 60 min at 22° C.; read-out: MPS1 Inhibition, IC50 in M. The assay is classed as biochemical. On the technique in general: TR-FRET usually uses a lanthanide donor and a delayed reading to cut background.
Regarding `O=C(Nc1ccc(-c2ccc3nc(Nc4ccccc4C(F)(F)F)nn3c2)cc1)C1CC1` [Example 5.2, N-[4-(2-{[2-(trifluoromethyl)phenyl]amino}[1,2,4]triazolo[1,5-a]pyridin-6-yl)phenyl]cyclopropanecarboxamide], the pIC50 (as a rule, the IC50 on a negative log10 scale, so that one unit is a factor of ten) is 6.74.

As for `N#Cc1ccccc1Nc1nc2ccc(-c3ccc(NC(=O)Cc4cccc(F)c4)cc3)cn2n1` [Example 3.5, N-(4-{2-[(2-cyanophenyl)amino][1,2,4]triazolo[1,5-a]pyridin-6-yl}phenyl)-2-(3-fluorophenyl)acetamide], the pIC50 is 8.96.

In the case of `N#Cc1ccccc1Nc1nc2ccc(-c3cccc(C(=O)NC4CC4)c3)cn2n1` [Example 9.5, 3-{2-[(2-cyanophenyl)amino][1,2,4]triazolo[1,5-a]pyridin-6-yl}-N-cyclopropylbenzamide], the negative logarithm of the IC50 (pIC50) was 8.36.

`CN1CCN(CC(=O)Nc2ccc(-c3ccc4nc(Nc5ccccc5C(F)(F)F)nn4c3)cc2)CC1` [Example 5.4, 2-(4-methylpiperazin-1-yl)-N-[4-(2-{[2-(trifluoromethyl)phenyl]amino}[1,2,4]triazolo[1,5-a]pyridin-6-yl)phenyl]acetamide]: the pIC50 was 5.66.

Take `COc1ccccc1Nc1nc2ccc(-c3cccc(NC(=O)N4CCC(N(C)C)CC4)c3)cn2n1` [Example 8.11, 4-(dimethylamino)-N-(3-{2-[(2-methoxyphenyl)amino][1,2,4]triazolo[1,5-a]pyridin-6-yl}phenyl)piperidine-1-carboxamide]: the pIC50 is 6.19.

As to `CO[C@H](C(=O)Nc1ccc(-c2ccc3nc(Nc4ccccc4C#N)nn3c2)cc1)c1ccccc1` (stereo in doubt) [Example 3.2, N-(4-{2-[(2-cyanophenyl)amino][1,2,4]triazolo[1,5-a]pyridin-6-yl}phenyl)-2-methoxy-2-phenylacetamide], the pIC50 is 8.47.

Regarding `COc1ccccc1Nc1nc2ccc(-c3cccc(NC(=O)NC4CC4)c3)cn2n1` [Example 8.9, 1-cyclopropyl-3-(3-{2-[(2-methoxyphenyl)amino][1,2,4]triazolo[1,5-a]pyridin-6-yl}phenyl)urea], the pIC50 was 7.08.

Consider `N#Cc1ccccc1Nc1nc2ccc(-c3ccc(NC(=O)Nc4ccccc4)cc3)cn2n1` [Example 3.7, 1-(4-{2-[(2-cyanophenyl)amino][1,2,4]triazolo[1,5-a]pyridin-6-yl}phenyl)-3-phenylurea], for which the pIC50 is 7.92.

Regarding `N#Cc1ccccc1Nc1nc2ccc(-c3cccc(C(=O)NC4CCCC4)c3)cn2n1` [Example 9.2, 3-{2-[(2-cyanophenyl)amino][1,2,4]triazolo[1,5-a]pyridin-6-yl}-N-cyclopentylbenzamide], the negative logarithm of the IC50 (pIC50) is 8.54.
